# Results published in ChEMBL document CHEMBL3102725, “Trichodermone, a spiro-cytochalasan with a tetracyclic nucleus (7/5/6/5) skeleton from the plant endophytic fungus Trichoderma gamsii” (J Nat Prod, 2014).
# System: HeLa
# Assay: Cytotoxicity against human HeLa cells by MTT assay
# Assay type: functional, cell-based
row,SMILES,IC50 [nM]
1,CC1=C[C@@H]2/C=C(\C)CC[C@H](O)[C@H](O)/C=C/C(=O)[C@]23C(=O)N[C@@H](CC(C)C)[C@@H]3[C@@H]1C [ASPOCHALASIN D],5720
2,CC(=O)O[C@H]1C(=O)[C@@]2(C)[C@H]([C@H](OC(=O)c3ccccc3)[C@]3(O)C[C@H](OC(=O)[C@H](O)[C@@H](NC(=O)c4ccccc4)c4ccccc4)C(C)=C1C3(C)C)[C@]1(OC(C)=O)CO[C@@H]1C[C@@H]2O [PACLITAXEL],2.5
